Source: ChEMBL document CHEMBL1136738, “Design, synthesis, and pharmacological profile of novel fused pyrazolo[4,3-d]pyridine and pyrazolo[3,4-b][1,8]naphthyridine isosteres: a new class of potent and selective acetylcholinesterase inhibitors” (J Med Chem, 2003)

Tests used:
[1] = biological target: T1, Acetylcholinesterase (Rattus norvegicus, UniProt P37136); assay: Inhibitory activity against rat brain total Acetylcholinesterase (AChE) was determined using Ellman's method
T1 sequence (P37136 whole entry): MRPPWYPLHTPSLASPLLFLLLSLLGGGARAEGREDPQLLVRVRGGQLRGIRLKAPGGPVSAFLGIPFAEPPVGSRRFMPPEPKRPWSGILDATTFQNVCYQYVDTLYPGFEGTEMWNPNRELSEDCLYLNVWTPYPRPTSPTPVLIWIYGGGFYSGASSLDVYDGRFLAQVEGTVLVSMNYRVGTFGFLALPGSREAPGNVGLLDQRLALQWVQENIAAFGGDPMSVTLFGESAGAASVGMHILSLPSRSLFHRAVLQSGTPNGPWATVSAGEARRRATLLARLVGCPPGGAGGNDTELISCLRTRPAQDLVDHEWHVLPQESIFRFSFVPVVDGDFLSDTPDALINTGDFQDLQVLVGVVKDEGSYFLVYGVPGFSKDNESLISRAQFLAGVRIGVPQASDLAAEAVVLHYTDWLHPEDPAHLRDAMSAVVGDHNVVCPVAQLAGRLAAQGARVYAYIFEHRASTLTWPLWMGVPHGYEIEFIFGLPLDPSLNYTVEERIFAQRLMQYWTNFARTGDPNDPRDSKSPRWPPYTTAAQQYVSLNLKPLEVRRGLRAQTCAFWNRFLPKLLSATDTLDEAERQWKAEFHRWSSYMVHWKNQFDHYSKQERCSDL

[2] = biological target: Butyrylcholinesterase (Rattus norvegicus, UniProt Q9JKC1)
Chain of Butyrylcholinesterase (Q9JKC1 whole entry): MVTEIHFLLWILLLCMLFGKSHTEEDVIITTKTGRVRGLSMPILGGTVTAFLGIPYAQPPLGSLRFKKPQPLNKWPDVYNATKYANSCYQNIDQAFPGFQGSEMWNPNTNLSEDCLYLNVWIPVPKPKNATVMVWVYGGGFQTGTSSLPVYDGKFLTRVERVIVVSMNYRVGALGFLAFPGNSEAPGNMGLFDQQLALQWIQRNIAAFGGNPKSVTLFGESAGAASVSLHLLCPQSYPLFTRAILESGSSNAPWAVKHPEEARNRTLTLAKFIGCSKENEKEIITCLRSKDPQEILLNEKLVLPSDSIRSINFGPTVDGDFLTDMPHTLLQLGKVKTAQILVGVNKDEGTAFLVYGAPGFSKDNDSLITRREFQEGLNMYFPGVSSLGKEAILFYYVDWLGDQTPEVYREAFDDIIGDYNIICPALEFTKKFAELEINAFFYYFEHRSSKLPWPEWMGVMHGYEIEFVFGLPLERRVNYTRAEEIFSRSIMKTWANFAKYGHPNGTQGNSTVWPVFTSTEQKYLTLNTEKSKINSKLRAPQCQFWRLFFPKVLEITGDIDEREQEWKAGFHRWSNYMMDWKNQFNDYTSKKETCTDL
Description: Inhibitory concentration against rat brain butyrylcholinesterase (BuChE) was determined using Ellman's method

SMILES | IC50 [1] | IC50 [2]
COc1ccc2c3c1C[C@H]1C[C@@H](O)C=C[C@]31CCN(C)C2 | 3.1 µM | 
Cc1nn(-c2ccccc2)c2nc3nc4c(c(N)c3cc12)CCC4 | 23.2 µM | 
Cc1nn(-c2ccccc2)c2nc3nc4c(c(N)c3cc12)CCCC4 | 6.39 µM | 134 µM
Cc1nn(-c2ccccc2)c2nc3c(c(N)c12)CCCC3 | 28.5 µM | 
Cc1nn(-c2ccccc2)c2c(N)c3c(nc12)CCC3 | 32.2 µM | 
Cc1nn(-c2ccccc2)c2nc3c(c(N)c12)CCC3 | 31.2 µM | 
Nc1c2c(nc3nn(-c4ccccc4)cc13)CCCC2 | 6.01 µM | 31.9 µM
Cc1nn(-c2ccccc2)c2c(N)c3c(nc12)CCCC3 | 26.7 µM | 
